What all share (assay): DTP human tumour cell line panel, 48 h
In assay [1] the test system is IGROV1 ovarian.
The test system of assay [2] is KM12 colon.
Assay [3] deals with LOX IMVI melanoma.
Assay [4] deals with MALME-3M melanoma.
Assay [5] relates to MDA-MB-435.
Assay [6] concerns NCI/ADR-RES ovarian.
Assay [7] concerns SF-268 CNS.
Assay [8] relates to SF-539 CNS.
Assay [9] concerns SK-MEL-2 melanoma.
Assay [10] relates to SK-MEL-5 melanoma.

Usually GI50 stands for the concentration giving 50% growth inhibition. In general, TGI refers to the concentration giving total growth inhibition. A low value points to more potent growth arrest.

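Dose response: 5 concentrations. Exposure: 48 h. Format: 96-well plates. Endpoint: linear interpolation; highest concentration if not reached. The concentration for 50% growth inhibition is given as GI50. At the TGI there is no net growth.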

For the compound `O=C(CCl)Nc1ccccc1SCc1cc(Cl)cc2c1OCOC2`, the GI50 was 2.27 µM in [1]; 13.8 µM in assay [2]; 2.16 µM in [3]; 2.3 µM in [4]; 2.87 µM in [5]; 17.5 µM in assay [6]. The GI50 in assay [7] was 7.14 µM; in assay [8], 15.3 µM; in assay [9], 11.4 µM; in assay [10], 4.09 µM. Further, the TGI amounted to 5.62 µM in [1]; 27.4 µM in assay [2]; 5.1 µM in [3]; 5.96 µM in assay [4]; 11.1 µM in assay [5]; 84.8 µM in assay [6]. Also, the TGI was determined as 23.5 µM in assay [7], 28.7 µM in assay [8], 24.8 µM in [9] and 16.4 µM in assay [10].

As for `COc1ccc(/C=C/C(=O)/C=C(/C=C/c2ccc(OC)c(OC)c2)OB(F)F)cc1OC`, the GI50 is 0.486 µM in assay [1]; 1.78 µM in assay [2]; 0.808 µM in [3]; 0.51 µM in [4]; 0.522 µM in [5]; 0.529 µM in [6]. In addition, the GI50 is 2.42 µM in assay [7], 1.18 µM in assay [8], 1.81 µM in assay [9] and 1.49 µM in assay [10]. Also, the concentration for total growth inhibition (TGI) in assay [1] was 4.41 µM; in assay [2], 3.95 µM; in [3], 2.19 µM; in [4] it was 4.25 µM; in assay [5], 3.89 µM; in [6] it was more than 100 µM. The TGI in [7] was more than 100 µM; in assay [8], 3.63 µM; in [9], 4.39 µM; in [10], 3.23 µM.

As for `COc1cc(/C=C2\CC(C)CC3C2=NN(c2ccccc2)C3c2cc(OC)c(OC)c(OC)c2)cc(OC)c1OC` (stereo not given), the GI50 is 20.2 µM in [1]; 7.28 µM in [2]; 9.69 µM in assay [3]; 21.3 µM in assay [4]; 8.53 µM in assay [5]; 12.1 µM in assay [6]. Moreover, the GI50 is 14.1 µM in assay [7], 16.6 µM in assay [8], 15.6 µM in assay [9] and 11.8 µM in assay [10]. Besides, the TGI in [1] was more than 100 µM; in assay [2] it was 40.8 µM; in assay [3] it was 27.8 µM; in [4], more than 100 µM; in assay [5], 47.7 µM; in assay [6], more than 100 µM. In addition, the TGI in [7] turned out to be 44.6 µM; in [8], 36.2 µM; in assay [9] it was 93 µM; in assay [10], 24.2 µM.

Consider `O=C1C(Cl)=C(Oc2ccccc2)C(=O)c2ccccc21`, for which the GI50 was 2.96 µM in [1]; 2.84 µM in assay [2]; 9.98 µM in assay [3]; 1.6 µM in [4]; 8.06 µM in assay [5]; 7.75 µM in assay [6]. Further, the GI50 was 5.37 µM in assay [7], 5.96 µM in assay [8], 6.56 µM in [9] and 6.26 µM in [10]. In addition, the TGI amounted to 9.63 µM in assay [1]; 8.84 µM in assay [2]; 22.7 µM in [3]; 3.41 µM in assay [4]; 24.1 µM in assay [5]; 37.9 µM in [6]. In addition, the concentration for total growth inhibition (TGI) in assay [7] amounted to 18.7 µM; in assay [8], 14.2 µM; in [9] it was 19.4 µM; in [10], 17.1 µM.

`CCOC(=O)Oc1c(OC)cc(C(=O)c2ccc(OC)c(OC(=O)CCl)c2OC)cc1OC`: the GI50 is 3.36 µM in [1]; 0.543 µM in assay [2]; 0.677 µM in assay [3]; 0.688 µM in [4]; 0.239 µM in assay [5]; 0.497 µM in assay [6]. In addition, the GI50 in assay [7] is 10.7 µM; in assay [8] it was 0.805 µM; in [9], 0.668 µM; in assay [10], 0.475 µM. Moreover, the TGI in assay [1] was more than 100 µM; in [2], more than 100 µM; in [3] it was more than 100 µM; in assay [4], 79.9 µM; in [5], 0.773 µM; in assay [6] it was 3.98 µM. Besides, the total growth inhibition concentration (TGI) is more than 100 µM in assay [7], 6.38 µM in assay [8], 60.2 µM in assay [9] and 14.9 µM in assay [10].

As for `CC(C)(C)[Si](C)(C)OC1[C@@H](O[Si](C)(C)C(C)(C)C)[C@@H](CNC(=O)NC(=O)NC(=O)CI)O[C@H]1n1cnc2c(NC(=O)Nc3ccccc3)ncnc21` (stereo not given in full), the GI50 in [1] is 0.113 µM; in assay [2] it was 0.68 µM; in assay [3] it was 0.0864 µM; in [4] it was 0.143 µM; in assay [5] it was 7.83 µM; in assay [6] it was 0.909 µM. Further, the GI50 in [7] is 1.5 µM; in assay [8], 0.441 µM; in assay [9], 8.07 µM; in [10] it was 8.73 µM. The TGI was found to be 0.246 µM in [1]; 3.78 µM in [2]; 0.155 µM in [3]; 0.565 µM in [4]; 20.8 µM in assay [5]; 3.41 µM in assay [6]. Moreover, the total growth inhibition concentration (TGI) was determined as 7.04 µM in assay [7], 1.16 µM in assay [8], 17.7 µM in [9] and 16.3 µM in assay [10].

The values above are taken from PubChem BioAssay (NCI).
